From US6750256B1, “Use of aromatic aldehydes as insecticides” (Proguard, Inc., priority 1994, dated 2004)

Key:
[1] = tested on: Adult male cockroaches (Dictyoptera; Blattelidae); experiment: German cockroach topical application bioassay; type: in vivo, German cockroaches; conditions: 2% (20,000 ppm) in aqueous vehicle (2% Tween 80, 6% NaHCO3); 5 ml spray; within five minutes
Procedure: Adult male cockroaches (Dictyoptera; Blattelidae) were used to evaluate insecticidal activity of cinnamic aldehyde and/or coniferyl aldehyde by a topical application method.
Twenty cockroaches were placed in stainless steel pails (20 liter) with lids. After one week provisioned with food, water and harborage, they were sprayed with 5 ml of a test formulation at arm's length (approximately 1 meter) using a Gilmour spray bottle. The number of dead or moribund cockroaches at 5 minutes, 30 minutes, 1 hour and 12 hours after treatment was counted and compared to those untreated (diluent only). Raid (active ingredients: permethrin, pyrethrins and PBO) was used as a positive control. Within five minutes, all cockroaches treated with 2% cinnamic aldehyde (20,000 ppm) in aqueous vehicle (2% Tween 80, 6% NaHCO3) were dead, as were all those treated with Raid. Ten percent of those treated with vehicle alone were dead in 30 minutes, with no further increase in mortality up to 12 hours.

[2] = tested on: melon aphids; experiment: Melon aphid whole plant spray with cinnamaldehyde and saponin; type: in vivo, Aphis gossypii Glover; conditions: whole plant sprayed to drip
Procedure: Whole nonflowering potted chrysanthemum plants were used to assay melon aphids. Two plants were treated for each treatment and two leaves, one from the top of the plant and one from the bottom of the plant, were sampled to determine the number of living and dead melon aphids. Three treatments were applied: 1.0% CNMA plus 0.5% saponin, 0.5% CNMA plus 0.25% saponin, and 0.5% saponin only. The whole plants were sprayed to “drip” on both the top and bottom sides of leaves. Results are presented as the proportion of aphids found dead. Results were as follows: control plant (0.5% saponin only) 14.8% ±4.5; 0.5% CNMA 48.3±16.1; 1.0% CNMA 72.0±11.2.

[3] = tested on: two-spotted spider mite, Tetranychus urticae; experiment: Spider mite treated petri dish contact bioassay; type: in vivo; conditions: Tetranychus urticae, 24 hours contact, read-out: Percent Mortality (24 hours)
Procedure: Activity of cinnamic aldehyde and/or coniferyl aldehyde against two-spotted spider mite, Tetranychus urticae is determined as follows. In a double blind experiment, intersurfaces of petri dishes (60 mm diameter) were treated with 100 μl of a test formulation and allowed to air dry and used within the hour. Twenty adult spider mites were put in each dish and the percent of mortality of the spider mites after 24 hours in contact with the treated dishes Was determined.

[4] = tested on: soft tick (Ornithodoros coriaceus); experiment: Tick treated filter paper test, soft ticks; type: in vivo
Procedure: In a double blind experiment, filter papers (90 mm) (Whatman) were treated to uniform saturation with 1 ml of test formula and placed in 90 mm petri dishes. Ten arachnids were placed in each petri dish and the dish closed. […] The cinnamic aldehyde concentrations varied from 10-50,000 ppm in a vehicle of 2% Tween 80, 6% NaHCO3. The effect of vehicle alone or H2O (HPLC) was also tested. In separate experiments, the effects of the components of the vehicle were evaluated in comparison to water.

[5] = tested on: larvae of Culex quinquefasciatus mosquito; experiment: Mosquito larvicidal bioassay; type: in vivo
Procedure: Larvicidal activity of test formulations at varying concentrations was tested in a double blind bioassay on larvae of Culex quinquefasciatus mosquito. Twenty-five late 3rd-instar larvae of Culex quinquefasciatus were placed in 100×80 mm Purex #3250 glass containers. 250 ml distilled H2O was pipetted into the containers. One ml of test formulation containing 10 to 25,000 ppm cinnamic aldehyde in vehicle (2% by volume Tween 80 and 6% sodium bicarbonate in distilled H2O) was pipetted into each container. A control blank using 1 ml distilled H2O instead of a test formulation was also prepared.
All treated and untreated glass containers were placed in temperature controlled room at 29° C. Each container was evaluated for larvae mortality at 24 hour intervals. The number of dead larvae were reported. See Table 5 for results of the bioassay. Concentrations above 5,000 ppm cinnamic aldehyde gave 90% mortality at 24 and 48 hours.

[6] = 10 ppm in 2% Tween 80 and 6% NaHCO3
[7] = 100 ppm in 2% Tween 80 and 6% NaHCO3
[8] = 2,500 ppm in 2% Tween 80 and 6% NaHCO3
[9] = 5,000 ppm in 2% Tween 80 and 6% NaHCO3
[10] = 12,500 ppm in 2% Tween 80 and 6% NaHCO3
[11] = 25,000 ppm in 2% Tween 80 and 6% NaHCO3
[12] = 1 ml of 100 ppm formulation in 250 ml H2O
[13] = 1 ml of 2,500 ppm formulation in 250 ml H2O
[14] = 1 ml of 5,000 ppm formulation in 250 ml H2O
[15] = 1 ml of 12,500 ppm formulation in 250 ml H2O
[16] = 1 ml of 25,000 ppm formulation in 250 ml H2O

O=C/C=C/c1ccccc1 [CNMA, cinnamic aldehyde]
cockroaches dead [1]: all | proportion of aphids found dead ([2]; 0.5% CNMA plus […] saponin): 48.3±16.1% | proportion of aphids found dead ([2]; 1.0% CNMA plus 0.5% saponin): 72.0±11.2% | mortality at 10 ppm ([3]; 10 ppm in 2% Tween 80, 6% NaHCO3): 51.7% | mortality at 100 ppm ([3]; 100 ppm in 2% Tween 80, 6% NaHCO3): 56% | mortality at 2500 ppm ([3]; 2,500 ppm in 2% Tween 80, 6% NaHCO3): 78% | mortality at 5000 ppm ([3]; 5,000 ppm in 2% Tween 80, 6% NaHCO3): 66.4% | mortality at 12500 ppm ([3]; 12,500 ppm in 2% Tween 80, 6% NaHCO3): 98.6% | mortality at 25000 ppm ([3]; 25,000 ppm in 2% Tween 80, 6% NaHCO3): 99.2% | Number Dead 24 Hours (#/30) [4, 6]: 0 #/30 | Number Dead 120 Hours (#/30) [4, 6]: 0 #/30 | Number Dead 24 Hours (#/30) [4, 7]: 0 #/30 | Number Dead 120 Hours (#/30) [4, 7]: 0 #/30 | Number Dead 24 Hours (#/30) [4, 8]: 2/30 | Number Dead 120 Hours (#/30) [4, 8]: 6/30 | Number Dead 24 Hours (#/30) [4, 9]: 3/30 | Number Dead 120 Hours (#/30) [4, 9]: 6/30 | Number Dead 24 Hours (#/30) [4, 10]: 5/30 | Number Dead 120 Hours (#/10) [4, 10]: 10/10 | Number Dead 120 Hours (#/30) [4, 10]: 6/30 | Number Dead 24 Hours (#/30) [4, 11]: 7/30 | Number Dead 120 Hours (#/10) [4, 11]: 10/10 | Number Dead 120 Hours (#/30) [4, 11]: 21/30 | Number Dead 120 Hours (#/10) ([4]; 30,000 ppm in 2% Tween 80 and 6% NaHCO3): 10/10 | Number Dead 120 Hours (#/10) ([4]; 35,000 ppm in 2% Tween 80 and 6% NaHCO3): 10/10 | Number Dead 120 Hours (#/10) ([4]; 40,000 ppm in 2% Tween 80 and 6% NaHCO3): 10/10 | Number Dead 120 Hours (#/10) ([4]; 45,000 ppm in 2% Tween 80 and 6% NaHCO3): 10/10 | Number Dead 120 Hours (#/10) ([4]; 50,000 ppm in 2% Tween 80 and 6% NaHCO3): 10/10 | mortality at 12500 ppm ([4]; Ornithodoros coriaceus): 100% | Percent Mortality (time) 24 hours ([5]; 1 ml of 10 ppm formulation (2% Tween 80, 6% sodium bicarbonate) in 250 ml H2O): 0% | Percent Mortality (time) 48 hours ([5]; 1 ml of 10 ppm formulation in 250 ml H2O): 0% | Percent Mortality (time) 24 hours [5, 12]: 2% | Percent Mortality (time) 48 hours [5, 12]: 2% | Percent Mortality (time) 24 hours [5, 13]: 4% | Percent Mortality (time) 48 hours [5, 13]: 4% | Percent Mortality (time) 24 hours [5, 14]: 8% | Percent Mortality (time) 48 hours [5, 14]: 20% | Percent Mortality (time) 24 hours [5, 15]: 90% | Percent Mortality (time) 48 hours [5, 15]: 90% | Percent Mortality (time) 24 hours [5, 16]: 100% | Percent Mortality (time) 48 hours [5, 16]: 100% | mortality ([5]; concentrations above 5,000 ppm, at 24 and 48 hours): 90%
